From ChEMBL document CHEMBL4476873, “Substituted urea depsipeptide analogs as activators of the clpp endopeptidase” (2018)
≈ marks a conversion by molar mass, not a printed value.

Columns and labels:
Staphylococcus aureus [1] = experiment: Antimicrobial activity against Staphylococcus aureus ATCC 29213 incubated overnight under aerobic condition by microbroth dilution method; type: functional
Staphylococcus aureus [2] = experiment: Antimicrobial activity against Staphylococcus aureus USA300 incubated overnight under aerobic condition by microbroth dilution method; type: functional
Streptococcus pyogenes = experiment: Antimicrobial activity against Streptococcus pyogenes ATCC 700294 incubated overnight under aerobic condition by microbroth dilution method; type: functional
Staphylococcus aureus [3] = experiment: Antimicrobial activity against Staphylococcus aureus USA300 deficient in ClpP incubated overnight under aerobic condition by microbroth dilution method; type: functional
Staphylococcus aureus [4] = experiment: Antimicrobial activity against Staphylococcus aureus NRS70 incubated overnight under aerobic condition by microbroth dilution method; type: functional
Vero = experiment: Cytotoxicity in African green monkey Vero cells assessed as reduction in cell viability incubated for 72 hrs by cell-titer-Glo luminescent cell viability assay; type: cell-based; conditions: Chlorocebus sabaeus
Bacillus subtilis = experiment: Antimicrobial activity against Bacillus subtilis ATCC 23857 incubated overnight under aerobic condition by microbroth dilution method; type: functional
Streptococcus pneumoniae = experiment: Antimicrobial activity against Streptococcus pneumoniae R6 incubated overnight under aerobic condition by microbroth dilution method; type: functional

SMILES: CCc1ccc(NC(=O)N[C@@H](Cc2cc(F)cc(F)c2)C(=O)N[C@@H]2C(=O)N3CCC[C@H]3C(=O)N(C)[C@@H](C)C(=O)N[C@@H](C)C(=O)N3C[C@@H](C)C[C@H]3C(=O)O[C@H]2C)cc1
- MIC (Staphylococcus aureus [1]): 0.1 µM (≈ 0.0796 µg/mL)
- MIC (Staphylococcus aureus [2]): 0.1 µM (≈ 0.0796 µg/mL)

SMILES: Cc1ccc(NC(=O)N[C@@H](Cc2cc(F)cc(F)c2)C(=O)N[C@@H]2C(=O)N3CCC[C@H]3C(=O)N3CCCC[C@H]3C(=O)N[C@@H](C)C(=O)N3C[C@@H](C)C[C@H]3C(=O)O[C@H]2C)cc1
- MIC (Streptococcus pyogenes): 0.4 µM (≈ 0.323 µg/mL)
- MIC (Staphylococcus aureus [3]): 100 µM (≈ 80.8 µg/mL)

SMILES: Cc1ccc(NC(=O)N[C@@H](Cc2cc(F)cc(F)c2)C(=O)N[C@H]2COC(=O)[C@@H]3C[C@@H](F)CN3C(=O)[C@H](C)NC(=O)[C@@H]3CCCCN3C(=O)[C@@H]3CCCN3C2=O)cc1
- MIC (Staphylococcus aureus [3]): > 200 µM

SMILES: CCc1ccc(NC(=O)N[C@@H](Cc2cc(F)cc(F)c2)C(=O)N[C@@H]2C(=O)N3CCC[C@H]3C(=O)N(C)[C@@H](C)C(=O)N[C@@H](C)C(=O)N3CCC[C@H]3C(=O)O[C@H]2C)cc1
- MIC (Staphylococcus aureus [1]): 0.2 µM (≈ 0.156 µg/mL)
- MIC (Staphylococcus aureus [2]): 0.2 µM (≈ 0.156 µg/mL)
- MIC (Staphylococcus aureus [3]): 100 µM (≈ 78.2 µg/mL)
- MIC (Staphylococcus aureus [4]): 0.2 µM (≈ 0.156 µg/mL)

SMILES: Cc1ccc(NC(=O)N[C@@H](Cc2ccccc2)C(=O)N[C@H]2COC(=O)[C@@H]3C[C@H](C)CN3C(=O)[C@H](C)NC(=O)[C@@H]3CCCCN3C(=O)[C@@H]3CCCN3C2=O)cc1
- MIC (Staphylococcus aureus [3]): > 200 µM

SMILES: C[C@@H]1C[C@H]2C(=O)O[C@@H](C)[C@H](NC(=O)[C@H](Cc3cc(F)cc(F)c3)NC(=O)Nc3ccc(OC(F)(F)F)cc3)C(=O)N3CCC[C@H]3C(=O)N3CCCC[C@H]3C(=O)N[C@@H](C)C(=O)N2C1
- MIC (Staphylococcus aureus [1]): 0.05 µM (≈ 0.0439 µg/mL)
- MIC (Staphylococcus aureus [2]): 0.05 µM (≈ 0.0439 µg/mL)

SMILES: O=C(N[C@H](CO)[C@H](O)c1ccc([N+](=O)[O-])cc1)C(Cl)Cl [CHLORAMPHENICOL]
- MIC (Staphylococcus aureus [2]): 3.1 µM (≈ 1 µg/mL)
- MIC (Staphylococcus aureus [4]): 3.1 µM (≈ 1 µg/mL)

SMILES: Cc1ccc(NC(=O)N[C@@H](Cc2cc(F)cc(F)c2)C(=O)N[C@H]2COC(=O)[C@@H]3C[C@H](C)CN3C(=O)[C@H](C)NC(=O)[C@@H]3CCCCN3C(=O)[C@@H]3CCCN3C2=O)cc1
- MIC (Staphylococcus aureus [3]): 100 µM (≈ 79.4 µg/mL)

SMILES: C[C@H]1C[C@H]2C(=O)O[C@@H](C)[C@H](NC(=O)[C@H](Cc3cc(F)cc(F)c3)NC(=O)Nc3ccc4c(c3)OCO4)C(=O)N3CCC[C@H]3C(=O)N3CCCC[C@H]3C(=O)N[C@@H](C)C(=O)N2C1
- MIC (Staphylococcus aureus [1]): 0.8 µM (≈ 0.67 µg/mL)
- MIC (Staphylococcus aureus [2]): 0.8 µM (≈ 0.67 µg/mL)

SMILES: C[C@H]1C[C@H]2C(=O)OC[C@H](NC(=O)[C@H](Cc3cc(F)cc(F)c3)NC(=O)Nc3ccc4c(c3)OCO4)C(=O)N3CCC[C@H]3C(=O)N3CCCC[C@H]3C(=O)N[C@@H](C)C(=O)N2C1
- MIC (Staphylococcus aureus [1]): 3.1 µM (≈ 2.55 µg/mL)
- MIC (Staphylococcus aureus [2]): 3.1 µM (≈ 2.55 µg/mL)

SMILES: Cc1ccc(NC(=O)N[C@@H](Cc2cc(F)cc(F)c2)C(=O)N[C@H]2COC(=O)[C@@H]3C[C@H](F)CN3C(=O)[C@H](C)NC(=O)[C@@H]3CCCCN3C(=O)[C@@H]3CCCN3C2=O)cc1
- MIC (Staphylococcus aureus [3]): > 200 µM

SMILES: CCc1ccc(NC(=O)N[C@@H](Cc2cc(F)cc(F)c2)C(=O)N[C@@H]2C(=O)N3CCC[C@H]3C(=O)N(C)[C@@H]([C@H](C)O)C(=O)N[C@@H](C)C(=O)N3C[C@@H](C)C[C@H]3C(=O)O[C@H]2C)cc1
- MIC (Staphylococcus aureus [3]): 100 µM (≈ 82.6 µg/mL)
- IC50 (Vero): 33.8 µM

SMILES: C[C@H]1C[C@H]2C(=O)O[C@@H](C)[C@H](NC(=O)[C@H](Cc3cc(F)cc(F)c3)NC(=O)Nc3ccc(OC(F)(F)F)cc3)C(=O)N3CCC[C@H]3C(=O)N(C)[C@@H](C)C(=O)N[C@@H](C)C(=O)N2C1
- MIC (Streptococcus pyogenes): 0.23 µM (≈ 0.196 µg/mL)
- MIC (Staphylococcus aureus [1]): 0.05 µM (≈ 0.0426 µg/mL)
- MIC (Staphylococcus aureus [2]): 0.1 µM (≈ 0.0852 µg/mL)
- MIC (Bacillus subtilis): 0.01 µM (≈ 0.00852 µg/mL)
- MIC (Staphylococcus aureus [3]): 25 µM (≈ 21.3 µg/mL)
- MIC (Staphylococcus aureus [4]): 0.05 µM (≈ 0.0426 µg/mL)

SMILES: C[C@@H]1NC(=O)[C@@H]2CCCCN2C(=O)[C@@H]2CCCN2C(=O)[C@@H](NC(=O)[C@H](Cc2cc(F)cc(F)c2)NC(=O)Nc2ccc3c(c2)OCO3)[C@H](C)OC(=O)[C@@H]2CCCN2C1=O
- MIC (Streptococcus pyogenes): < 0.1 µM
- MIC (Staphylococcus aureus [1]): 3.1 µM (≈ 2.55 µg/mL)
- MIC (Staphylococcus aureus [2]): 3.1 µM (≈ 2.55 µg/mL)
- MIC (Staphylococcus aureus [4]): 3.1 µM (≈ 2.55 µg/mL)

SMILES: C[C@H]1C[C@H]2C(=O)O[C@@H](C)[C@H](NC(=O)[C@H](Cc3cc(F)cc(F)c3)NC(=O)Nc3ccc(OC(F)(F)F)cc3)C(=O)N3CCC[C@H]3C(=O)N(C)[C@@H]([C@H](C)O)C(=O)N[C@@H](C)C(=O)N2C1
- IC50 (Vero): 25.4 µM

SMILES: Cc1ccc(NC(=O)N[C@@H](Cc2cc(F)cc(F)c2)C(=O)N[C@@H]2C(=O)N3CCC[C@H]3C(=O)N(C)[C@@H]([C@H](C)O)C(=O)N[C@@H](C)C(=O)N3C[C@H](C)C[C@H]3C(=O)O[C@H]2C)cc1
- MIC (Streptococcus pyogenes): 0.1 µM (≈ 0.0812 µg/mL)
- MIC (Streptococcus pneumoniae): 0.02 µM (≈ 0.0162 µg/mL)
- MIC (Staphylococcus aureus [1]): 0.05 µM (≈ 0.0406 µg/mL)
- MIC (Staphylococcus aureus [2]): 0.1 µM (≈ 0.0812 µg/mL)
- MIC (Bacillus subtilis): 0.05 µM (≈ 0.0406 µg/mL)
